Measured values as given in US5962424A, “Methods and compositions for targeting selectins” (Arch Development Corporation, priority 1995, dated 1999).

Key:
[1] = test system: E-selectin production in irradiated HUVEC; test: x-ray-mediated E-selectin induction in HUVEC after inhibitor pretreatment (antibody labeling, flow cytometry); type: cell-based, human; conditions: H7 100 nM, staurosporin 10 nM, BPB 10 μM, mepacrine 20 μM added prior to irradiation
Protocol: HUVEC and HMEC cells were grown to 90% confluence and irradiated with a GE Maxitron x-ray generator as previously described (Hallahan et al., 1989). Cells were removed from flasks with 0.1% collagenase, 0.01% EDTA, 0.25% BSA and pelleted in 12×75 mm polystyrene tubes. The supernatant was discarded and the cells were incubated with primary IgG1 antibody (mouse anti-human ICAM-1 and E-selectin-1; R&D Systems, Inc., Minneapolis,MN) for 20 min at 4° C.
The cells were then rinsed with isotonic phosphate buffered saline (PBS), pelleted and incubated with FITC-conjugated secondary antibody (goat anti-mouse IgG1) for 20 min at 4° C. The fluorescently labeled cells were rinsed in PBS and fixed in PBS containing 0.01% paraformaldehyde.
Fluorescence activated cell sorting (FACS) analysis was utilized for quantitation of receptor expression of ICAM-1 and E-selectin on HUVEC. The Becton Dickinson FACScanner was used with Lysis II software. Forward and side scatter fluorescence data identified 10,000 viable endothelial cells in each experimental group for unlabeled cells, nonspecific-antibody-labelled cells, ICAM-1-labeled cells and E-selectin-labeled cells. Fluorescence data were then accumulated on each group of 10,000 cells at 530 nm, the wavelength emitted by FITC.
The fluorescence data were expressed as histograms of events versus log fluorescence and analyzed in comparison to the autofluorescence of unlabelled cells as well as the fluorescence of baseline ICAM-1 labelled or E-selectin-1 labeled cells as appropriate. During inhibition studies, PKC inhibitors H7 100 nM and staurosporin 10 nM or Phospholipase A2 inhibitors BPB 10 μM or mepacrine 20 μM were added to cell cultures 30 min prior to irradiation.
PKC participates in both NFkB activation and signal transduction initiated by ionizing radiation (Hallahan et al., 1991). Furthermore, PLA2 participates in free-radical and x-ray-mediated PKC activation and gene induction (Hallahan et al., 1991). To determine whether PLA2 or PKC activation is required for radiation-mediated E-selectin induction, the inventors added the PKC inhibitors H7 and staurosporin or the PLA2 inhibitors BPB or mepacrine to HUVEC […] prior to irradiation. Following irradiation, cells were scraped and E-selectin was quantified by antibody labeling and flow cytometry.

[2] = test system: E-selectin; conditions: competitive binding assay, cited from earlier work
[3] = test system: HL60 cells / irradiated HUVECs; test: adherence of HL60 cells to irradiated HUVECs; type: cell-based, human; conditions: 1 mM; added 4 h after 10 Gy irradiation, 30 min prior to HL60 cells
Protocol: Human leukemia cell line HL60 has been used to quantify leukocyte adhesion to endothelial cells (Jones et al., 1995). HL60 cells were added to HUVECs after exposure to 10 Gy or cells treated with otherwise identical conditions without irradiation. Cultures were washed and cells were counted using a hemocytometer. […] Glycyrrhizin, carminic acid or sialyl Lewis X (1 mM each, SIGMA) were added to irradiated cells at 4 h after irradiation and 30 min prior to the addition of HL60 cells.

[4] = test system: selectin; conditions: cited from earlier work; for blocking of selectin binding to sLe^x: in vitro
[5] = rats, oral; cited from earlier work

## CN[C@@H]1C[C@H]2O[C@@](C)([C@@H]1OC)n1c3ccccc3c3c4c(c5c6ccccc6n2c5c31)C(=O)NC4 [staurosporin]
[1]
  radiation-mediated E-selectin production: not attenuated

## CC1CNCCN1S(=O)(=O)c1cccc2cnccc12 (stereo not shown) [H7]
[1]
  radiation-mediated E-selectin production: not attenuated

## COC(=O)CCCCCCCCO[C@@H]1O[C@H](CO)[C@@H](O[C@@H]2O[C@@H](C)[C@@H](O)[C@@H](O)[C@@H]2O)[C@H](O[C@@H]2O[C@H](CO)[C@H](O)[C@H](O[C@]3(C(=O)O)C[C@H](O)[C@@H](NC(C)=O)[C@H]([C@H](O)[C@H](O)CO)O3)[C@H]2O)[C@H]1N [amino substituted sLe^a]
[2]
  activity relative to the reducing tetrasaccharide sLe^x: 36 fold
[2]; read-out: IC50 (blocking of E-selectin)
  IC50: 21 ± 3 µM

## CC(=O)N[C@H]1[C@H]([C@H](O)[C@H](O)CO)O[C@@](O[C@H]2[C@@H](O)[C@@H](CO)O[C@@H](O[C@H]3[C@H](O[C@@H]4O[C@@H](C)[C@@H](O)[C@@H](O)[C@@H]4O)[C@@H](NC(C)=O)C(O)O[C@@H]3CO)[C@@H]2O)(C(=O)O)C[C@@H]1O (stereo partly shown) [sialyl Lewis X, Neu5Acα2-3Galβ1-4[Fucα1-3]GlcNAc]
[3]
  adherence of HL60 cells to irradiated HUVECs: blocked the adherence

## Cc1c(C(=O)O)c(O)cc2c1C(=O)c1c(O)c([C@@H]3O[C@H](CO)[C@@H](O)[C@H](O)[C@H]3O)c(O)c(O)c1C2=O [carminic acid]
[3]
  adherence of HL60 cells to irradiated HUVECs: blocked the adherence
[4]
  blocking of selectin binding to sLe^x: blocked selectin binding at concentrations comparable to those of glycyrrhizin

## CCN(CC)CCCC(C)Nc1c2ccc(Cl)cc2nc2ccc(OC)cc12 (stereo not shown) [mepacrine]
[1]
  radiation-mediated E-selectin production: not attenuated

## O=C(CBr)c1ccc(Br)cc1 [BPB]
[1]
  radiation-mediated E-selectin production: not attenuated

## CC1(C)[C@@H](O)CC[C@]2(C)[C@H]3C(=O)C=C4[C@@H]5C[C@@](C)(C(=O)O)CC[C@]5(C)CC[C@@]4(C)[C@]3(C)CC[C@@H]12 [18-β-glycyrrhetinic acid]
[4]; read-out: IC50 (blocking selectin activity)
  IC50: > 2000 µM

## CC1(C)[C@@H](O[C@H]2O[C@H](C(=O)O)[C@@H](O)[C@H](O)[C@H]2O[C@@H]2O[C@H](C(=O)O)[C@@H](O)[C@H](O)[C@H]2O)CC[C@]2(C)[C@H]3C(=O)C=C4[C@@H]5C[C@@](C)(C(=O)O)CC[C@]5(C)CC[C@@]4(C)[C@]3(C)CC[C@@H]12 [Glycyrrhizin]
[3]
  adherence of HL60 cells to irradiated HUVECs: blocked the adherence
[4]
  blocking of selectin binding to sLe^x: block selectin binding
[5]
  absorption from the gut: poorly absorbed
